Assay results reported in patent US10590140B2, “Tetrahydropyrimidodiazepine and dihydropyridodiazepine compounds for treating pain and pain related conditions” (ESTEVE PHARMACEUTICALS, S.A., priority 2016, dated 2020).
Read-outs that look alike come from different tables or passages of the source.

Biological target: human α2δ-1 subunit of Cav2.2 calcium channel (Homo sapiens (Human), UniProt P54289)
Test: Binding assay to human α2δ-1 subunit of Cav2.2 calcium channel ([3H]-Gabapentin)
Conditions: read-out: Ki (nM) α2δ-1
Method: Binding Assay to Human α2δ-1 Subunit of Cav2.2 Calcium Channel.
NSB (non specific binding) was measured by adding 10 μM pregabalin. After 60 min incubation at 27° C., binding reaction was terminated by filtering through Multiscreen GF/C (Millipore) presoaked in 0.5% polyethyleneimine in Vacuum Manifold Station, followed by 3 washes with ice-cold filtration buffer containing 50 mM Tris-HCl, pH 7.4.
Filter plates were dried at 60° C. for 1 hour and 30 μl of scintillation cocktail were added to each well before radioactivity reading.

[1] = binding to α2δ-1, [3H]-Gabapentin

human α2δ-1 subunit of Cav2.2 calcium channel, sequence (P54289 25-1103): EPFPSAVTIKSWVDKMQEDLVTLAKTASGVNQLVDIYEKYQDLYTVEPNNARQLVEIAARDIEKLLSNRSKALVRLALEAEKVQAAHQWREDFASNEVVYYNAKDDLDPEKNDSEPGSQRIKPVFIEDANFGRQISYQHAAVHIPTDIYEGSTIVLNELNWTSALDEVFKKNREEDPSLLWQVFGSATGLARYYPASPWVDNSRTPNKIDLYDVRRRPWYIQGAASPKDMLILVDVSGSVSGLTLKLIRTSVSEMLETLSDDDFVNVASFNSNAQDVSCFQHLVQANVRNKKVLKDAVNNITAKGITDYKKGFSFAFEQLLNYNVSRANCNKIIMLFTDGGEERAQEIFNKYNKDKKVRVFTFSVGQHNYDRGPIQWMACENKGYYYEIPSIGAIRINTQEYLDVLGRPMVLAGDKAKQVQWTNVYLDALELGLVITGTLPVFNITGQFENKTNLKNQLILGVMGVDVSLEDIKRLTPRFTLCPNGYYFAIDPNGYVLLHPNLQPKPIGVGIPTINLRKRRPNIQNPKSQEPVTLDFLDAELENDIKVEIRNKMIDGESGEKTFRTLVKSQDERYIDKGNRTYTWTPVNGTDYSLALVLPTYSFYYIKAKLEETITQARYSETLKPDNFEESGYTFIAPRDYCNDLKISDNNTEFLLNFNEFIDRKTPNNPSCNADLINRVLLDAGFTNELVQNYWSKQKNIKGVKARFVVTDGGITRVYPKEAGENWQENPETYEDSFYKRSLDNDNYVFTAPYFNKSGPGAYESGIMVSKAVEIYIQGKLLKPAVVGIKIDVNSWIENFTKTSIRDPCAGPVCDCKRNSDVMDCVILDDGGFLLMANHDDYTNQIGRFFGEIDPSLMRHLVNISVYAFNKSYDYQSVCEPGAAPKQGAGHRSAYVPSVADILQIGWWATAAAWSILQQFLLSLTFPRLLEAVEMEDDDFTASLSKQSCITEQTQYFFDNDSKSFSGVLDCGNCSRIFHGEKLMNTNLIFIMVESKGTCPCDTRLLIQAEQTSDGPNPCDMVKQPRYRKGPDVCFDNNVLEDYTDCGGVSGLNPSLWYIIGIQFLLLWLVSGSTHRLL

Row | Ki (Table 2, dual compounds, [3H]-Gabapentin binding) | Ki [1] | Compound
1 | 100 to 500 nM | 100 to 500 nM | CCNc1ncc2c(n1)N(C)CCN(c1cccc(CO[C@H](CCNC)c3cccs3)c1)C2=O [Example 212, (R)-2-(ethylamino)-9-methyl-6-(3-((3-(methylamino)-1-(thiophen-2-yl)propoxy)methyl)phenyl)-6,7,8,9-tetrahydro-5H-pyrimido[4,5-e][1,4]diazepin-5-one]
2 | – | > 3000 nM | CCNc1ncc2c(n1)N(C)CCN(c1cccc(O)c1)C2=O [Example 177, 2-(ethylamino)-6-(3-hydroxyphenyl)-9-methyl-6,7,8,9-tetrahydro-5H-pyrimido[4,5-e][1,4]diazepin-5-one]
3 | – | > 3000 nM | CSc1ncc2c(n1)N(C)CCN(Cc1cccc(OC(CN(C)C(=O)OC(C)(C)C)c3ccccc3)c1)C2=O (stereo not shown) [Example 62, tert-Butyl methyl(2-(3-((9-methyl-2-(methylthio)-5-oxo-5,7,8,9-tetrahydro-6H-pyrimido[4,5-e][1,4]diazepin-6-yl)methyl)phenoxy)-2-phenylethyl) carbamate]
4 | – | > 3000 nM | CSc1ncc2c(n1)N(C)CCN(c1cccc(OC(CNC(=O)OC(C)(C)C)c3ccccc3)c1)C2=O (stereo not shown) [Example 5, tert-butyl (2-(3-(9-methyl-2-(methylthio)-5-oxo-5,7,8,9-tetrahydro-6H-pyrimido[4,5-e][1,4]diazepin-6-yl)phenoxy)-2-phenylethyl) carbamate]
5 | – | > 3000 nM | CSc1ncc2c(n1)N(C)CCN(c1cccc(COC(CCN(C)C(=O)OC(C)(C)C)c3cccs3)c1)C2=O (stereo not shown) [Example 15, tert-butyl methyl(3-((3-(9-methyl-2-(methylthio)-5-oxo-5,7,8,9-tetrahydro-6H-pyrimido[4,5-e][1,4]diazepin-6-yl)benzyl)oxy)-3-(thiophen-2-yl)propyl) carbamate]
6 | – | 500 to 3000 nM | CCNc1ncc2c(n1)N(C)CCN(c1cccc(OC(C)CN(C)CCc3ccccc3)c1)C2=O (stereo not shown) [Example 263, 2-(ethylamino)-9-methyl-6-(3-((1-(methyl(phenethyl)amino)propan-2-yl)oxy)phenyl)-6,7,8,9-tetrahydro-5H-pyrimido[4,5-e][1,4]diazepin-5-one]
7 | – | > 3000 nM | Cc1nnc(-c2cccc(N3CCN(C)c4nc(NCC(C)C)ncc4C3=O)c2)o1 [Example 98, 2-(isobutylamino)-9-methyl-6-(3-(5-methyl-1,3,4-oxadiazol-2-yl)phenyl)-6,7,8,9-tetrahydro-5H-pyrimido[4,5-e][1,4]diazepin-5-one]
8 | – | > 3000 nM | CSc1ncc2c(n1)N(C)CCN(c1cccc(OC(CCN(C)C(=O)OC(C)(C)C)c3ccccn3)c1)C2=O (stereo not shown) [Example 52, tert-butyl methyl(3-(3-(9-methyl-2-(methylthio)-5-oxo-5,7,8,9-tetrahydro-6H-pyrimido[4,5-e][1,4]diazepin-6-yl)phenoxy)-3-(pyridin-2-yl)propyl) carbamate]
9 | – | > 3000 nM | CCNc1ncc2c(n1)N(C)CCN(c1cccc(OC(CN(C)C(=O)OC(C)(C)C)C(C)C)c1)C2=O (stereo not shown) [Example 75, tert-butyl (2-(3-(2-(ethylamino)-9-methyl-5-oxo-5,7,8,9-tetrahydro-6H-pyrimido[4,5-e][1,4]diazepin-6-yl)phenoxy)-3-methylbutyl) (methyl)carbamate]
10 | – | 100 to 500 nM | CCNc1ncc2c(n1)N(C)CCN(c1cccc(-n3cc(CN4CCN(c5ccccc5)CC4)nn3)c1)C2=O [Example 280, 2-(ethylamino)-9-methyl-6-(3-(4-((4-phenylpiperazin-1-yl)methyl)-1H-1,2,3-triazol-1-yl)phenyl)-6,7,8,9-tetrahydro-5H-pyrimido[4,5-e] [1,4]diazepin-5-one]
11 | – | > 3000 nM | CN(CC[C@@H](OCc1cccc(N2CCN(C)c3nc(O)ncc3C2=O)c1)c1ccccc1)C(=O)OC(C)(C)C [Example 140, tert-Butyl (R)-(3-((3-(2-hydroxy-9-methyl-5-oxo-5,7,8,9-tetrahydro-6H-pyrimido[4,5-e][1,4]diazepin-6-yl)benzyl)oxy)-3-phenylpropyl)(methyl)carbamate]
12 | – | > 3000 nM | CCNc1ncc2c(n1)N(C)CCN(c1cccc(O[C@@H](CCN(C)C(=O)OC(C)(C)C)c3cccs3)c1)C2=O [Example 82, tert-butyl (S)-(3-(3-(2-(ethylamino)-9-methyl-5-oxo-5,7,8,9-tetrahydro-6H-pyrimido[4,5-e][1,4]diazepin-6-yl)phenoxy)-3-(thiophen-2-yl)propyl)(methyl) carbamate]
13 | – | > 3000 nM | CSc1ncc2c(n1)N(C)CCN(c1cccc(-n3cc(CN(Cc4ccccc4)C(=O)OC(C)(C)C)nn3)c1)C2=O [Example 41, tert-butyl benzyl((1-(3 (9-methyl-2-(methylthio)-5-oxo-5,7,8,9-tetrahydro-6H pyrimido[4,5-e][1,4]diazepin-6-yl)phenyl)-1H-1,2,3-triazol-4-yl)methyl) carbamate]
14 | – | > 3000 nM | CCNc1ncc2c(n1)N(C)CCN(c1cccc(CO[C@H](CCN(C)C(=O)OC(C)(C)C)c3cccs3)c1)C2=O [Example 84, tert-butyl (R)-(3-((3-(2-(ethylamino)-9-methyl-5-oxo-5,7,8,9-tetrahydro-6H-pyrimido[4,5-e][1,4]diazepin-6-yl)benzyl)oxy)-3-(thiophen-2-yl)propyl)(methyl) carbamate]
15 | – | > 3000 nM | CSc1ncc2c(n1)N(C)CCN(c1cccc(O[C@@H](CCN(C)C(=O)OC(C)(C)C)c3cccs3)c1)C2=O [Example 14, tert-butyl (S)-methyl(3-(3-(9-methyl-2-(methylthio)-5-oxo-5,7,8,9-tetrahydro-6H-pyrimido[4,5-e][1,4]diazepin-6-yl)phenoxy)-3-(thiophen-2-yl)propyl) carbamate]
16 | – | 100 to 500 nM | CCNc1ncc2c(n1)N(C)CCN(c1cccc(C3CCN(C)CC3)c1)C2=O [Example 260, 2-(ethylamino)-9-methyl-6-(3-(1-methylpiperidin-4-yl)phenyl)-6,7,8,9-tetrahydro-5H-pyrimido[4,5-e][1,4]diazepin-5-one]
17 | – | > 3000 nM | CNCCC(C)OCc1cccc(N2CCN(C)c3nc(SC)ncc3C2=O)c1 (stereo not shown) [Example 192, 9-methyl-6-(3-(((4-(methylamino)butan-2-yl)oxy)methyl)phenyl)-2-(methylthio)-6,7,8,9-tetrahydro-5H-pyrimido[4,5-e][1,4]diazepin-5-one]
18 | – | 100 to 500 nM | CNCCC(Oc1ccc(CN2CCN(C)c3nc(OC)ncc3C2=O)cc1)c1cc(C)cs1 (stereo not shown) [Example 396, 2-methoxy-9-methyl-6-(4-(3-(methylamino)-1-(4-methylthiophen-2-yl)propoxy)benzyl)-6,7,8,9-tetrahydro-5H-pyrimido[4,5-e][1,4]diazepin-5-one]
19 | – | > 3000 nM | CN(CC[C@@H](OCc1cccc(N2CCN(C)c3nc(N)ncc3C2=O)c1)c1ccccc1)C(=O)OC(C)(C)C [Example 130, tert-butyl (R)-(3-((3-(2-amino-9-methyl-5-oxo-5,7,8,9-tetrahydro-6H-pyrimido[4,5-e][1,4]diazepin-6-yl)benzyl)oxy)-3-phenylpropyl)(methyl) carbamate]
20 | – | > 3000 nM | CSc1ncc2c(n1)N(C)CCN(c1cccc(COC3(c4ccccc4)CCN(C(=O)OC(C)(C)C)CC3)c1)C2=O [Example 28, tert-butyl 4-((3-(9-methyl-2-(methylthio)-5-oxo-5,7,8,9-tetrahydro-6H-pyrimido[4,5-e][1,4]diazepin-6-yl)benzyl)oxy)-4-phenylpiperidine-1-carboxylate]
21 | – | > 3000 nM | CNCC(OCc1ccccc1N1CCN(C)c2nc(SC)ncc2C1=O)c1ccccc1 (stereo not shown) [Example 320, 9-methyl-6-(2-((2-(methylamino)-1-phenylethoxy)methyl)phenyl)-2-(methylthio)-6,7,8,9-tetrahydro-5H-pyrimido[4,5-e][1,4]diazepin-5-one]
22 | – | > 3000 nM | CNCCC(OCc1ccccc1CN1CCN(C)c2nc(SC)ncc2C1=O)c1ccccc1 (stereo not shown) [Example 365, 9-methyl-6-(2-((3-(methylamino)-1-phenylpropoxy)methyl)benzyl)-2-(methylthio)-6,7,8,9-tetrahydro-5H-pyrimido[4,5-e][1,4]diazepin-5-one]
23 | – | > 3000 nM | CSc1ncc2c(n1)N(C)CCN(c1cccc(OCCN(C)C(=O)OC(C)(C)C)c1)C2=O [Example 22, tert-butyl methyl(2-(3-(9-methyl-2-(methylthio)-5-oxo-5,7,8,9-tetrahydro-6H-pyrimido[4,5-e][1,4]diazepin-6-yl)phenoxy)ethyl) carbamate]

Row | Compound | Ki (Table 2, dual compounds, [3H]-Gabapentin binding) | Ki [1]
24 | Cc1cc2c(cn1)C(=O)N(Cc1ccc(O[C@@H](CCN(C)C(=O)OCC[Si](C)(C)C)c3cccs3)cc1)CCN2C [Example 301, 2-(trimethylsilyl)ethyl (S)-(3-(4-((1,8-dimethyl-5-oxo-1,2,3,5-tetrahydro-4H-pyrido[4,3-e][1,4]diazepin-4-yl)methyl)phenoxy)-3-(thiophen-2-yl)propyl)(methyl) carbamate] | – | > 3000 nM
25 | CCNc1cc2c(cn1)C(=O)N(c1cccc(COC(CCN(C)C(=O)OCC[Si](C)(C)C)c3cccs3)c1)CCN2C (stereo not shown) [Example 60, 2-(trimethyl-silyl)ethyl (3-((3-(8-(ethylamino)-1-methyl-5-oxo-1,2,3,5-tetrahydro-4H-pyrido[4,3-e] [1,4]diazepin-4-yl)benzyl)oxy)-3-(thiophen-2-yl)propyl) (methyl) carbamate] | – | > 3000 nM
26 | CCNc1ncc2c(n1)N(C)CCN(c1cccc(COC3(c4ccccc4)CCN(C)CC3)c1)C2=O [Example 272, 2-(ethylamino)-9-methyl-6-(3-(((1-methyl-4-phenylpiperidin-4-yl)oxy)methyl)phenyl)-6,7,8,9-tetrahydro-5H-pyrimido[4,5-e][1,4]diazepin-5-one] | – | 500 to 3000 nM
27 | CCNc1cc2c(cn1)C(=O)N(c1cccc(OC(CCN(C)C(=O)OCC[Si](C)(C)C)c3cccs3)c1)CCN2C (stereo not shown) [Example 58, 2-(trimethyl-silyl)ethyl (3-(3-(8-(ethylamino)-1-methyl-5-oxo-1,2,3,5-tetrahydro-4H-pyrido[4,3-e] [1,4]diazepin-4-yl)phenoxy)-3-(thiophen-2-yl)propyl)(methyl) carbamate] | – | > 3000 nM
